# Experiments:
# [1] = system: GABA; assay: GABA content in brain of TBI rats; assay type: in vivo, SD rats; conditions: 30 mg/kg ip, 7 d continuous administration, FIG. 4
# Experimental: The experimental grouping and drug administration plan were as follows. • Sham operation group (Group P): saline was given with the same volume as in the CTMB group; • Model group (T group): a blank emulsion was given with the same volume as in the CTMB group; • Medium dose group (Group M): a dose of 30 mg/kg of CTMB emulsion injection was given.
# The experimental grouping and drug administration plan were the same as the test 3. After 7 d of continuous administration to each group, the rats were deeply anesthetized, the heads were severed and the brains were removed, about 60-120 mg of hemispheric cortex on the blood side was taken out, 10 times volume of ice-cold centrifugation buffer used for biochemical assay was added, homogenized for 10 min under an ice bath, and then centrifuged for 30 min at 4° C. and 14000 rpm/min. The supernatants were taken to test the GLT-1 and GABA content according to the instructions of GLT-1 and GABA content assay kit, respectively. Glutamate transporter 1 (GLT-1) is an important glutamate transporter in the brain that transports extracellular glutamate to the intracellular compartment. γ-aminobutyric acid (GABA) is an important inhibitory neurotransmitter, and a dramatic increase in the concentration of extracellular glutamate in pathological conditions leads to neuronal hyperexcitability toxicity.
# [2] = system: Parkinson's disease (PD) mice, 6-OHDA method; assay: 6-OHDA Parkinson's disease mice, hanging experiment; assay type: in vivo, C57 mice; conditions: Group D, CTMB 20 mg/kg ip, cut-off 60 s
# Experimental: The mice were randomly divided into a sham operation group (group S, given a blank emulsion with a volume equal to that of the administered group), a model group (group M, given a blank emulsion with a volume equal to that of the administered group), a CTMB group (20 mg/kg, group D), and a levodopa group (levodopa: benserazide hydrochloride=4:1, 12 mg/kg, group L), each group included 10-12 mice, and all of them were administered intraperitoneally.
# Preoperatively, mice were fasted for 12 h, and mice were anesthetized with 4% isoflurane induction and maintained with 1.5% isoflurane. The mice were subsequently immobilized on a brain stereotaxic apparatus. The bregma and lambda points were exposed by gently wiping the cranial surface with a cotton swab after cutting the scalp. The stereotaxic apparatus was adjusted to align the heights of the bregma and lambda points, thereby leveling the skull. The bregma point was designated as the origin, the coordinates where the injection site was located were located, and the drill was used to drill a small hole in the skull above the injection site.
# 6-OHDA (12.5 μg/μL) was injected into the striatum region (AP+0.5 mm; ML+2.00 mm; DV-3.00 mm and-2.00 mm) of the mice, and 1 μL 6-OHDA was injected into each of the two points at a rate of 0.5 μL/min. The needle was left in place for 3 min after the injection was completed, and then the injection needle was lifted, and the scalp of the mice was sutured and disinfected. The sham operation group was injected with an equal volume of saline containing 0.02% ascorbic acid, and other operations were performed as above. After the procedure, the mice were placed in the cage at an appropriate temperature. After awakening from anesthesia, the mice were kept normally.
# The hanging experiment: normal mice have climbing activity, which requires proper grip strength and motor coordination, so the hanging experiment may be used to examine motor dysfunction in mice. A metal rod with a diameter of 1.5 mm was placed horizontally on top of the box, and a distance from the metal rod to the bottom of the box was 30 cm. […] Measurement was performed twice, with an interval of 1 min or more between each test, and the results were averaged over the two times.
# The motor function of the mice was comprehensively assessed using the rod-climbing experiment and the hanging experiment at 1, 2, 3, and 4 weeks after drug administration.
structure (smiles),measurement,setting,value
"COc1cc(OC)c(OC)cc1C=C1CCC1 [CTMB, 1-(cyclobutylidenemethyl)-2,4,5-trimethoxybenzene]",GABA content in brain,[1],increases the content of GABA
same,"Hanging time, Before administration",[2]; baseline 2 weeks after 6-OHDA,45.5 ± 14.6 s
same,"Hanging time, 1 week of administration",[2],51.8 ± 14.1 s
same,"Hanging time, 2 weeks of administration",[2],56.8 ± 5.2 s
same,"Hanging time, 3 weeks of administration",[2],58.8 ± 2.8 s
same,"Hanging time, 4 weeks of administration",[2],57.6 ± 4.6 s

# Reference: patent US20250270159A1, “1-(CYCLOBUTANEMETHYLIDENE)-2, 4, 5-TRIMETHOXYBENZENE COMPOUND AND PREPARATION METHOD AND USE THEREOF” (CHENGDU XINRUI TAIKANG TECHNOLOGY CO., LTD., priority 2023, published 2025)
